Here are results for one molecule from patent US10328051B2, “Proline or proline derivatives for the treatment of dementia” (priority 2014, dated 2019).

Data set [1] in a line: Tissue distribution and pharmacokinetics of single dose of radiolabelled 3H-CHP in mice (Study IPSS C053). The data set is classed as in vivo. The following applies: single dose 3H-CHP. The source says:
Example 1: Tissue Distribution and Pharmacokinetic Study with CHP Study “Clinical Study in Mice on the Tissue Distribution and Pharmacokinetics of Single Dose of the Radiolabelled ^3H-CHP-Study No.: IPSS C053”—(FIG. 1). This Study has been Designed and Performed According to this Invention
1. Determination of ^3H-CHP distribution in 25 tissues, remaining carcass and whole blood over time.
2. Determination of pharmacokinetic parameters of CHP.
3. Comparison of intravenous (IV), and oral routes of administration.
^3H-CHP Labelling • CHP was labelled on the 4-prime position using tritium. • The scintillation counting technique detects the tritium atom. • Therefore the counting technique detects CHP and some metabolites which incorporate the tritium. […] They were selected using inclusion and exclusion criteria, and were therefore highly standardised.
Dosing Regimen • 48 animals were each administered 50 μCi ^3H-CHP at the start of the experiment. This was termed time zero (00:00 hrs). • 27 mice were dosed via the intravenous (IV) route. • 21 mice were dosed via the oral route. • Six (6) animals were not administered with CHP. They form two control groups of 3 mice each.
Data Collection • 3 mice were sacrificed following the SOP for anesthesia and according to the following time intervals
Sample Collection • From each sacrificed mouse, the following samples were taken: • Whole BloodEyes & Harderian GlandsKidneys & Adrenal GlandsAortaLiverLungSpleenUrinary BladderBone & Bone MarrowCaecumSmall IntestineLarge IntestineLymph Nodes (Mesenteric) Muscle, PancreasBrain & Pituitary GlandBrown FatSubcutaneous FatHeartThymousBoth TestesProstateSkinStomachThyroidSalivary GlandsRemaining CarcassUrine (collected if possible: in practise this was rare)
The remaining carcass sample consisted of the rest after removal of whole blood and the other tissues. Any material cleaned from other tissues listed above was also included. The collected remainings were homogenised before analysis.

Another data set deals with hepatic fibrosis. Description: Phase II clinical study IPSS-B025: anti-fibrotic efficacy in chronic liver diseases. The data set is classed as in vivo, human. The source says: Title: Phase II—CHP in patients with chronic viral hepatitis, chronic alcohol liver diseases without cirrhosis or primary sclerosing cholangitis 45 patients—Study IPSS-B025 (Example 12.4).
Data set [2] concerns adenocarcinoma and liver metastases, pancreatic cancer and bladder cancer. Nature of the data set: Phase II clinical studies IPSS-A04, IPSS-B013, IPSS-D002: anti-tumour activity. The data set is classed as in vivo, human. From the text: Title: Phase II—CHP as antitumour agent in patients with resected colorectal cancer and liver metastasis; 60 patients—Study IPSS-A04 (Example 12.1).
Title: Phase II—CHP in patients with locally advanced or metastatic pancreatic cancer—14 patients Study IPSS B013 (Example 12.2).
Title: Evaluation of safety and efficacy of CHP in patients with urogenital Cancer—25 patients—Study IPSS-D002 (Example 12.3).

A short description of data set [3]: Multiple dose ascending bioavailability and safety study (Phase I) with oral CHP (Study 0202-71). Format: in vivo, human. Here is the method:
Example 5—Study Title: Multiple Dose Ascending Bioavailability and Safety Study Phase 1 with Oral CHP-GALMED Study No: 0202-71
12 healthy Caucasian males were recruited (age: 18-45 years).
Multiple doses of CHP were orally administered: • 4×2.0 g CHP per day, for 14 consecutive days (total daily dose=8.0 g CHP) • 4×3.0 g CHP per day, for 14 consecutive days (total daily dose=12.0 g CHP) Each dose level was administered to all volunteers.
Objectives • To determine the pharmacokinetic parameters and safety of CHP and THP in plasma following oral administration of multiple doses of 8 g CHP (4×2 g) and 12 g CHP (4×3 g)—4× daily, τ=6 h, respectively, in 12 healthy subjects on Day 1 and Day 14. • To model and simulate plasma concentrations of CHP and THP during Days 1 to 14.

For data set [4], the system named is Alpha Glutathione S-Transferase (α-GST). Nature of the data set: Measurement of α-Glutathione-S-Transferase following multiple dose administration of CHP (Study 0202-71). The data set is classed as in vivo, human. The following applies: healthy volunteers. From the text:
Example 6—Measurement of α-Glutathione-S-Transferase Following Multiple Dose Administration of CHP (Study 0202-71)—(FIG. 7)
Study title: Measurement of α-Glutathione-S-Transferase following multiple dose administration of CHP (Study 0202-71)
12 healthy Caucasian males were recruited (age: 18-45 years). Multiple doses of CHP were orally administered: • 4×2.0 g CHP per day, for 14 consecutive days (total daily dose=8.0 g CHP) • 4×3.0 g CHP per day, for 14 consecutive days (total daily dose=12.0 g CHP)
To determine the effect of CHP on the blood concentration of Alpha Glutathione S-Transferase (α-GST) following the administration of: • 4×2.0 g CHP per day, for 14 consecutive days (total daily dose=8.0 g CHP) • 4×3.0 g CHP per day, for 14 consecutive days (total daily dose=12.0 g CHP)
The P-value obtained was 0.0017, indicating a 99.8% that the decreased observed was not the result of chance. A one-sample two-sided t-test was used, using the data from day 0-day 17.

A short description of data set [5]: Tissue distribution, bioaccumulation and pharmacokinetics following multiple dose administration of 3H-CHP in mice (Study IPSS E015). Format: in vivo. From the text: Example 2. A Study in Mice on the Tissue Distribution, Bioaccumulation and Pharmacokinetics in Tissues, Connective and BrainTissues Following Multiple Dose Administration of ^3H-CHP Study No. IPSS E015 (FIG. 2)
According to this invention the study has been designed and performed as follows:
From each mouse sacrificed, the following organs & tissues samples were taken:
Liver, kidney, pancreas, limbic system, spinal fluid, brain stem, cerebrum, cerebellum, cartilage, ligaments and tendons (dense or fibrous connective tissue), loose connective tissue, and reticular connective tissue (supports lymph nodes, bone marrow, and spleen)

The test system of data set [6] is patients with advanced cancer disease. Nature of the data set: Efficacy, safety and Quality of Life of 25 clinical cases with advanced cancer treated with oral and intravenous CHP. Format: in vivo, human. From the text: Example 11—Study Title: Evaluation of the Efficacy, Safety and Quality of Life (QoL) of 25 Clinical Cases in Patients with Advanced Cancer Disease Treated with Oral and Intravenous Formulations of Cis-4-Hydroxy-L-Proline (CHP)
25 patients (15 female and 10 male) have been treated with oral and/or intravenous CHP: • Mean age was over 60 years with maximum of 82 and minimum of 36 years. • 15 Patients considered as “elderly patients”—60-82 years (60%) • Patients 50-60 years (20%) • No further demographic data were documented. • Complete clinical case documents have been prepared for each patient.

Where [7] appears, read: male, human, plasma, healthy subjects, oral 4×2.0 g CHP/day.
Where [8] appears, read: oral CHP, administration 4× daily.
[9] abbreviates: repeated oral dose of 3H-CHP for 7 consecutive days.

The structures appear in SMILES notation. “Also recorded” adds a separate entry of the source.

Consider `O=C(O)[C@@H]1C[C@H](O)CN1` [CHP, cis-4-hydroxy-L-proline], for which the “Maximal concentration in the brain following oral administration in comparison to the intravenous application” value in data set [1] is recorded as “approximately 48%”. Further, the “Crossing of the blood-brain barrier” value in data set [1] (concentration observed in brain & pituitary gland) is given as “can cross the blood-brain barrier”. The “Anti-fibrotic efficacy in patients suffering from chronic liver diseases” value in the data set on hepatic fibrosis was “inhibited the hepatic fibrosis; also recorded: antifibrotic efficacy; also recorded: anti-fibrotic efficacy; also recorded: anti-fibrotic activities”. The “Anti-tumour activity in patients” value in data set [2] is “anti-tumour activities”. Moreover, in data set [3] (setting [7]), the highest level (Cmax) was 52.3 µg/mL, the Tmax turned out to be 0.98 h and the half-life is 34.2 h. Further, the mean residence time MRT inf in data set [3] (male, human, plasma, healthy subjects, oral 4×2.0 g CHP/day, read-out: MRT (0-inf)) came to 9.33 h. In data set [3] (multiple oral doses of CHP), the “Accumulation following oral administration” value was “extensive”. Also, the “Time after which a steady state was observed” value in data set [3] (multiple oral doses of CHP, 4× daily, simulation of plasma concentration-time curves) is on record as “approximately 48 h”. For the same molecule, in data set [3] (oral CHP 4× daily, τ=6 h), the “Plasma half-life relative to the dosing interval” value was “approximately 4 times”. Also, in data set [3] (setting [8]), the “Css,min lower if 2.0 g of CHP was administered (versus 3.0 g)” value came out at 36%; the “Increase of AUCss,t, Css,max and Css,ave when the dose was increased from 2.0 g up to 3.0 g” value is listed as “approximately 50%”. Also, the Liver cell damage result in data set [4] (multiple oral doses of CHP for 14 days) is “no effect of liver cell damage”. Moreover, the “α-GST levels in blood” value in data set [4] (oral 4×2.0 g or 4×3.0 g CHP per day for 14 days, P-value 0.0017, one-sample two-sided t-test, day 0-day 17) is listed as “inhibits significantly; also recorded: highly significant”. Besides, in data set [5] (repeated dose of oral aqueous solution of 3H-CHP), the “Penetration of the BBB” value was “Excellent penetration of the BBB”. Further, in data set [5] (setting [9]), the “AUC as % of total administered CHP in cerebrum, cerebelium, brain stem, limbic system and spinal fluid” value is reported as 14.9%; the “AUC as % of total administered CHP in loose connective tissues, cartilage, reticular connective tissue, dense/fibrous connective tissue, bone and bone marrow” value turned out to be 35%; the “Half-Life time in cerebrum, cerebelium, brain stem and limbic system” value fell in the range of 32.30 to 42.70 h. In data set [6] (1-13 month, 2-22 gram/day CHP as monotherapy, 25 patients), the “Tolerability of long-term treatment” value is “well tolerated”. The “Toxic side effects, adverse events” value in data set [6] (25 patients with advanced cancer, CHP monotherapy) is “No adverse events or side effects occurred were clinically relevant; also recorded: no toxic side effects or serious adverse events”. For the same molecule, in data set [6] (advanced cancer patients treated with CHP), the Healing entry is “In one case healing was achieved”. The “Course of disease in most of the patients” value in data set [6] (advanced cancer, no progression, no ascites, no obstruction) is given as “quite long time of stable disease”.
